Source: patent publication US12357570B2, “Chemoembolization agents” (BRUIN BIOSCIENCES, INC., priority 2017, dated 2025)
Entries after “also recorded” stand apart in the source; their conditions may differ.

Columns and labels:
[1] = Loading of liposome-encapsulated drug on DC Beads (supernatant HPLC/MS); format: physicochemical; settings: for loading on DC Beads: cationic liposomes DOTAP/DOPC; for amount loaded: start of elution, liposomal drug on DC Beads
Protocol: (§1) This was accomplished via a two-step process: 1) Sorafenib was made water-soluble by encapsulation into an encapsulating agent that is positively charged on its outer surface (cationic liposomes) and 2) association of a plurality of the loaded encapsulating agents so obtained onto microspheres (DC Beads®). In order to accomplish this, Sorafenib para-toluene sulfonate salt (9.1 mg), DOTAP (1,2-dioleoyl-3-trimethylammonium-propane chloride salt, 100 mg) and DOPC (1,2-dioleoyl-sn-glycero-3-phosphocholine, 101.1 mg) were dissolved in ethanol (0.5 mL) and this solution was added dropwise to a 10% trehalose solution (9 mL) under stirring. The resulting viscous emulsion was stirred at room temperature for 5 minutes and then filtered through a manual liposomal extruder using a 200 nm polycarbonate membrane. The resulting unilamellar liposomal solution was lyophilized overnight to yield a white solid, which was reconstituted in deionized water (1.82 mL) to yield a final Sorafenib concentration of 5 mg/mL. DC Beads® (2 mL, having about 200,000 beads with an average bead diameter of about 100-300 microns as measured by light scattering) were drained of as much liquid as possible and treated with the liposomal solution. The concentration of Sorafenib in the supernatant was measured over time by HPLC/MS. After approximately 46 hours, equilibrium was reached and loading of Sorafenib appeared to be approximately 52%. It is possible that saturation was reached and that more beads are needed to increase loading. For elution experiments, the liposomal solution with the DC Beads® was passed through a cotton filter, leaving the DC Beads® on the filter. PBS (1.0 M, pH 7.4) warmed to 37° C. was passed over the beads at 4 mL/min for 60 minutes. Four 40 mL vials were collected and analyzed by HPLC/MS/MS to determine the concentration of Sorafenib in each sample. Ten 3 mL vials were collected and analyzed by HPLC/MS/MS to establish the drug elution kinetics for Sorafenib.
This was accomplished via a two-step process: 1) Regorafenib (4.7229 mg) was made water-soluble by encapsulation into an encapsulating agent that is positively charged on its outer surface (cationic liposomes) and 2) association of a plurality of the loaded encapsulating agents so obtained onto microspheres. In short, Regorafenib (6.9 mg), DOTAP (1,2-dioleoyl-3-trimethylammonium-propane chloride salt, 100 mg) and DOPC (1,2-dioleoyl-sn-glycero-3-phosphocholine, 101.1 mg) were dissolved in ethanol (0.5 mL) and this solution was added dropwise to a 10% trehalose solution (9 mL) under stirring. […] The concentration of Regorafenib in the supernatant was measured over time by HPLC/MS. […] Four 40 mL vials were collected and analyzed by HPLC/MS/MS to determine the concentration of […] in each sample.

[2] = Elution of liposome-encapsulated drug from DC Beads with PBS pH 7.4 at 37° C.; format: physicochemical; settings: for Remaining drug to be eluted: after Fraction I (solvent-final)
Protocol: as §1, with “PBS (1.0 M, pH 7.4) warmed to 37° C. was passed over the beads at 4 mL/min for 60 minutes.” left out
This was accomplished via a two-step process: 1) Regorafenib (4.7229 mg) was made water-soluble by encapsulation into an encapsulating agent that is positively charged on its outer surface (cationic liposomes) and 2) association of a plurality of the loaded encapsulating agents so obtained onto microspheres. In short, Regorafenib (6.9 mg), DOTAP (1,2-dioleoyl-3-trimethylammonium-propane chloride salt, 100 mg) and DOPC (1,2-dioleoyl-sn-glycero-3-phosphocholine, 101.1 mg) were dissolved in ethanol (0.5 mL) and this solution was added dropwise to a 10% trehalose solution (9 mL) under stirring. The resulting viscous emulsion was stirred at room temperature for 5 minutes and then filtered through a manual liposomal extruder using a 200 nm polycarbonate membrane. The resulting unilamellar liposomal solution was lyophilized overnight to yield a white solid, which was reconstituted in deionized water (1.8 mL) to yield a final Regorafenib concentration of 5 mg/mL. DC Beads® (2 mL) were drained of as much liquid as possible and treated with the liposomal solution. The concentration of Regorafenib in the supernatant was measured over time by HPLC/MS. After approximately 92 hours, equilibrium was reached and loading of Regorafenib appeared to be approximately 25%. For elution experiments, the liposomal solution with the DC Beads® was passed through a cotton filter, leaving the DC Beads® on the filter. […] Four 40 mL vials were collected and analyzed by HPLC/MS/MS to determine the concentration of […] in each sample.

[3] = cited from earlier work
[4] = human, 400 mg twice daily, cited from earlier work
[5] = Loading of non-encapsulated drug on DC Beads (residual unloaded drug by HPLC); format: physicochemical; settings: room temperature
Protocol: A drug-loading solution was prepared by adding sterile water to a vial of doxorubicin hydrochloride powder (Pharmacia & Upjohn, Kalamazoo, MI) to produce a solution of the desired concentration (for the loading experiment 25 mg Doxorubicin salt was dissolved in 5 mL water. 0.043 mmol/5 mL=8.6 mM solution). 1 mL volume of beads was aspirated via syringe, purged of as much liquid as possible, then an aqueous solution Doxorubicin (5 mL, 5 mg/mL concentration) aspirated and mixed with beads. The mixture was dispensed into a sealed vial and left to load at room temperature without agitation and left for a time until the red coloration in the solution had diminished and the beads had taken on a red color. This time was dependent on drug loading solution concentration and bead size.
The extent of drug loading was calculated from the residual unloaded drug content determined by UV/visible HPLC with DAD detector at 220 and 254 nm (Agilent 1100 Series). Estimated uptake of Doxorubicin was approximately 90% loading after 25 hours, and approximately 99% loading after 91 hours.
Sunitinib was loaded to DC Beads® using a procedure similar to that for Example 6. Estimated uptake of Sunitinib was approximately 99% after 6 hours and >99.8% after 24 hours at room temperature.

[6] = after a 24 hour period; previous observations; cited from earlier work
[7] = Fraction I (solvent-final), time 320 minutes

Row | SMILES | amount loaded [1] | % eluted ([2]; Fraction B, time 40 minutes) | Cumulative elution % ([2]; Fraction B, time 40 minutes) | amount eluted ([2]; Fraction B, time 40 minutes) | % eluted ([2]; Fraction C, time 80 minutes) | Cumulative elution % ([2]; Fraction C, time 80 minutes) | amount eluted ([2]; Fraction C, time 80 minutes) | % eluted ([2]; Fraction D, time 120 minutes) | Cumulative elution % ([2]; Fraction D, time 120 minutes) | amount eluted ([2]; Fraction D, time 120 minutes) | % eluted ([2]; Fraction E, time 160 minutes) | Cumulative elution % ([2]; Fraction E, time 160 minutes) | amount eluted ([2]; Fraction E, time 160 minutes) | % eluted ([2]; Fraction F, time 200 minutes) | Cumulative elution % ([2]; Fraction F, time 200 minutes) | amount eluted ([2]; Fraction F, time 200 minutes) | % eluted ([2]; Fraction G, time 240 minutes) | Cumulative elution % ([2]; Fraction G, time 240 minutes) | amount eluted ([2]; Fraction G, time 240 minutes) | % eluted ([2]; Fraction H, time 280 minutes) | other results
1 | CNC(=O)c1cc(Oc2ccc(NC(=O)Nc3ccc(Cl)c(C(F)(F)F)c3)c(F)c2)ccn1 [Regorafenib] | 2.1931 mg | 68.3963% | 68.3963% | 1.5 mg | 2.3255% | 70.7218% | 0.051 mg | 0.0109% | 70.7327% | 0.00024 mg | 0.00286% | 70.7356% | 0.0000628 mg | 0.0017% | 70.7373% | 0.0000372 mg | 0.0017% | 70.739% | 0.0000364 mg | 0.0049% | loading on DC Beads ([1]; equilibrium after approximately 92 hours): approximately 25%; Cumulative elution % ([2]; Fraction H, time 280 minutes): 70.7439%; amount eluted ([2]; Fraction H, time 280 minutes): 0.000108 mg; % eluted [2, 7]: 3.5384%; Cumulative elution % [2, 7]: 74.2823%; amount eluted [2, 7]: 0.0776 mg; Remaining drug to be eluted [2]: 0.5723 mg; water solubility [3]: poor
2 | CNC(=O)c1cc(Oc2ccc(NC(=O)Nc3ccc(Cl)c(C(F)(F)F)c3)cc2)ccn1 [Sorafenib, 4-{4-[3-(4-chloro-3-trifluoro-phenyl)-ureido]-phenoxyl}-pyridine-2-carboxylic methylamine] | 4.7229 mg | 65.4259% | 65.4259% | 3.09 mg | 10.6714% | 76.0973% | 0.504 mg | 0.6479% | 76.7452% | 0.0306 mg | 0.6924% | 77.4376% | 0.0327 mg | 0.1912% | 77.6287% | 0.00903 mg | 0.1188% | 77.7475% | 0.00561 mg | 0.00648% | loading on DC Beads ([1]; equilibrium after approximately 46 hours): approximately 52%; Cumulative elution % ([2]; Fraction H, time 280 minutes): 77.754%; amount eluted ([2]; Fraction H, time 280 minutes): 0.000306 mg; % eluted [2, 7]: 4.9292%; Cumulative elution % [2, 7]: 82.68%; amount eluted [2, 7]: 0.2328 mg; Remaining drug to be eluted [2]: 0.8179 mg; concentration released in smaller increments thereafter ([2]; after initial release): 0.2 µM; drug remained on the beads ([2]; after the last elution time point): Approximately 17%; concentration released initially ([2]; initial release from beads): 4 to 20 µM; fraction of loaded drug eluted ([2]; over 40 minutes): approximately 2%; mean t½ [4]: 27.4 h; Cmax ([4]; read-out: Cmax in plasma): ~11.6 µM; solubility in alcohol ([3]; alcohol): slightly soluble; solubility in polyethylene glycol 400 ([3]; polyethylene glycol 400): fully soluble; water solubility [3]: mostly insoluble; also recorded: very poor
3 | COc1cccc2c1C(=O)c1c(O)c3c(c(O)c1C2=O)C[C@@](O)(C(=O)CO)C[C@@H]3O[C@H]1C[C@H](N)[C@H](O)[C@H](C)O1 [Doxorubicin] |  |  |  |  |  |  |  |  |  |  |  |  |  |  |  |  |  |  |  |  | Estimated uptake (loading) on DC Beads ([5]; after 25 hours): approximately 90%; Estimated uptake (loading) on DC Beads ([5]; after 91 hours): approximately 99%; fraction of drug eluted [6]: about 4%
